{"source": "patent US20250288650A1", "about": "“Therapeutic Regimens and Methods for Reducing Body Weight and/or Serum Lipids using a GLP-1R and GCGR Agonist” (Spitfire Pharma LLC, priority 2024, published 2025)", "origin": "cited, not measured here", "key": {"[1]": {"settings": "6 weeks"}, "[2]": {"settings": "over 26 weeks of administration"}}}
{"smiles": "CCCCCCCCCCCCCCCC(=O)N[C@@H](CCC(=O)NCCCC[C@H](NC(=O)[C@H](CC(=O)O)NC(=O)[C@H](CO)NC(=O)[C@@H](NC(=O)[C@H](Cc1ccccc1)NC(=O)[C@@H](NC(=O)CNC(=O)[C@H](CCC(N)=O)NC(=O)[C@H](CO)NC(=O)[C@@H](N)Cc1c[nH]cn1)[C@@H](C)O)[C@@H](C)O)C(=O)N[C@@H](CO)C(=O)N[C@@H](CCC(=O)O)C(=O)N[C@@H](Cc1ccc(O)cc1)C(=O)N[C@@H](CC(C)C)C(=O)N[C@@H](CC(=O)O)C(=O)N[C@@H](CO)C(=O)N[C@@H](CCC(=O)O)C(=O)N[C@@H](CCCNC(=N)N)C(=O)N[C@@H](C)C(=O)N[C@@H](CCCNC(=N)N)C(=O)N[C@@H](CC(=O)O)C(=O)N[C@@H](Cc1ccccc1)C(=O)N[C@H](C(=O)N[C@@H](C)C(=O)N[C@@H](Cc1c[nH]c2ccccc12)C(=O)N[C@@H](CC(C)C)C(=O)N[C@@H](CCC(=O)O)C(=O)N[C@@H](C)C(=O)NCC(=O)NCC(=O)O)C(C)C)C(=O)O", "note": "[cotadutide]", "values": [{"measurement": "reduction in liver fat content", "setting": "[1]", "result": 39, "unit": "%"}, {"measurement": "degree of weight loss", "setting": "[2]", "result": 5.4, "unit": "%"}]}
